Assay results taken from BigSolDB 2.1.

C[C@@H]1CC[C@@]2(OC1)O[C@H]1C[C@H]3[C@@H]4CC=C5C[C@@H](O)CC[C@]5(C)[C@H]4CC[C@]3(C)[C@H]1[C@@H]2C
Conditions	solubility (mole fraction)
in acetone, 295.15 K	0.000904
in acetone, 302.15 K	0.00115
in acetone, 304.65 K	0.00127
in acetone, 308.15 K	0.0014
in acetone, 310.15 K	0.00149
in acetone, 312.15 K	0.00159
in acetone, 313.65 K	0.0017
in acetone, 315.65 K	0.00184
in acetone, 317.15 K	0.00194
in acetone, 319.15 K	0.00204
in acetone, 321.15 K	0.00217
in acetone, 322.65 K	0.0023
in acetone, 324.65 K	0.00243
in acetone, 326.65 K	0.00256
in acetone, 327.65 K	0.00267
in acetone, 329.15 K	0.00279
in acetone, 330.15 K	0.00292
in acetone, 332.15 K	0.00303
in ethanol, 299.15 K	0.00133
in ethanol, 303.15 K	0.00144
in ethanol, 306.15 K	0.00153
in ethanol, 308.65 K	0.00161
in ethanol, 311.65 K	0.00169
in ethanol, 313.65 K	0.00175
in ethanol, 315.65 K	0.00184
in ethanol, 317.15 K	0.00193
in ethanol, 319.15 K	0.002
in ethanol, 320.65 K	0.00208
in ethanol, 322.65 K	0.00215
in ethanol, 324.15 K	0.00224
in ethanol, 326.15 K	0.00233
in ethanol, 327.65 K	0.00241
in ethanol, 328.65 K	0.00249
in ethanol, 329.65 K	0.00258
in ethanol, 330.65 K	0.00268
in ethanol, 331.65 K	0.00276
in ethanol, 332.65 K	0.00284
in ethyl acetate, 300.65 K	0.0024
in ethyl acetate, 302.15 K	0.00258
in ethyl acetate, 303.15 K	0.00276
in ethyl acetate, 303.65 K	0.00294
in ethyl acetate, 305.15 K	0.00317
in ethyl acetate, 307.15 K	0.00338
in ethyl acetate, 308.65 K	0.0036
in ethyl acetate, 310.65 K	0.00383
in ethyl acetate, 311.65 K	0.00402
in ethyl acetate, 313.65 K	0.00423
in ethyl acetate, 315.65 K	0.00447
in ethyl acetate, 316.65 K	0.00466
in ethyl acetate, 318.15 K	0.00492
in ethyl acetate, 320.15 K	0.00523
in ethyl acetate, 321.65 K	0.00545
in ethyl acetate, 323.15 K	0.00577
in ethyl acetate, 324.65 K	0.00602
in ethyl acetate, 326.65 K	0.00628
in ethyl acetate, 327.65 K	0.0065
in ethyl acetate, 328.95 K	0.00673
in isopropanol, 293.15 K	0.000835
in isopropanol, 296.65 K	0.000975
in isopropanol, 300.65 K	0.00111
in isopropanol, 303.15 K	0.00123
in isopropanol, 304.65 K	0.00134
in isopropanol, 306.65 K	0.00145
in isopropanol, 308.65 K	0.00157
in isopropanol, 311.15 K	0.00167
in isopropanol, 314.65 K	0.00178
in isopropanol, 317.15 K	0.00192
in isopropanol, 319.15 K	0.00203
in isopropanol, 321.15 K	0.00216
in isopropanol, 324.65 K	0.0023
in isopropanol, 326.15 K	0.00241
in isopropanol, 328.15 K	0.00253
in isopropanol, 330.15 K	0.00267
in isopropanol, 332.15 K	0.00282
in methanol, 291.15 K	0.000187
in methanol, 298.15 K	0.000257
in methanol, 300.15 K	0.000325
in methanol, 308.15 K	0.000401
in methanol, 312.65 K	0.000469
in methanol, 315.15 K	0.00051
in methanol, 317.65 K	0.000556
in methanol, 319.65 K	0.0006
in methanol, 322.15 K	0.000643
in methanol, 323.65 K	0.000694
in methanol, 325.65 K	0.000743
in methanol, 327.15 K	0.000795
in methanol, 328.15 K	0.000847
in methanol, 329.15 K	0.00091
in methanol, 331.65 K	0.000994
in n-propyl acetate, 296.15 K	0.0021
in n-propyl acetate, 300.15 K	0.00263
in n-propyl acetate, 306.65 K	0.00313
in n-propyl acetate, 307.15 K	0.00321
in n-propyl acetate, 310.15 K	0.00356
in n-propyl acetate, 314.65 K	0.00402
in n-propyl acetate, 317.65 K	0.00442
in n-propyl acetate, 319.65 K	0.0047
in n-propyl acetate, 322.15 K	0.00495
in n-propyl acetate, 323.65 K	0.0053
in n-propyl acetate, 325.15 K	0.00543
in n-propyl acetate, 327.15 K	0.00575
in n-propyl acetate, 328.65 K	0.00616
in n-propyl acetate, 329.15 K	0.00612
